In PubChem BioAssay AID1996:
≈ marks a conversion by molar mass, not a printed value.

Conditions: buffer; pH 7.4; 200.0 µM

SMILES	solubility kinetic [µg/mL]
CC(C)Sc1ccc([N+](=O)[O-])cc1C(=O)Nc1ccncc1	40.8 (≈ 129 µM)
Cc1ccc(C(=O)NCC(=O)OCC(=O)c2ccccc2)s1	> 47.6
CC1CCC(NC(=O)CCN2C(=O)C3CC=CCC3C2=O)CC1 (stereo unspecified)	> 47.8
Nc1nc(SCC(=O)N2CCCC2)[nH]c(=O)c1NC(=O)c1cccs1	> 56.9
O=C(Nc1ccc(N2CCCCCC2)cc1)c1ccc[nH]1	18.7 (≈ 66 µM)
O=C(Nc1cnccc1C(F)(F)F)NC1CCCCC1	43.1 (≈ 150 µM)
Cc1noc(C)c1-c1nc(CS(=O)(=O)c2ccc(F)cc2)no1	43.4 (≈ 129 µM)
O=C(COC(=O)c1ccc2ccccc2n1)Nc1ccccc1F	8.9 (≈ 27.4 µM)
CCOc1ccc(NC(=O)COC(=O)CC2CC3CCC2C3)cc1 (stereo unspecified)	16.9 (≈ 51 µM)
CC/C(C)=N/Oc1nc(C)cc(C)n1	28.5 (≈ 147 µM)
CC1CCCCN1CC(O)COCc1ccccc1.Cl (stereo unspecified)	> 45
CCC1(c2ccccc2)NC(=O)N(CC(=O)NC2CCCCCC2)C1=O (stereo unspecified)	37.8 (≈ 106 µM)
CCC(CC)C(=O)c1c[nH]c(C(=O)NCc2ccncc2)c1	44.2 (≈ 148 µM)
COCCNc1ccc(N2C(=O)C3CCCCC3C2=O)cc1[N+](=O)[O-] (stereo unspecified)	50.8 (≈ 146 µM)
Cc1csc(SCC(=O)NC(=O)NCCC(C)C)n1	22.6 (≈ 75 µM)
O=C(Nc1cccc2ccccc12)c1cccc(F)c1	5.8 (≈ 21.9 µM)
CCOC(=O)c1c(C)[nH]c(C(=O)OCC(=O)NCc2ccccc2)c1C	4.5 (≈ 12.6 µM)
Cn1c(=O)n(CCO)c(=O)c2c1nc(Br)n2Cc1ccccc1	> 56.9
CSc1nc(NS(=O)(=O)c2ccc(F)cc2F)nn1C	> 48
CC(=O)Nc1sc2c(c1C(N)=O)CCN(Cc1ccccc1)C2.Cl	> 54.9
Cc1cn(C2CCC(CO)O2)c(=O)[nH]c1=O (stereo unspecified)	> 33.9
Cc1ccc(NC(=S)NCCC2=CCCCC2)cc1	0.6 (≈ 2.19 µM)
COC(=O)CCC(=O)NNC(=O)Cc1ccccc1	> 39.6
O=C(/C=C/c1ccc(Cl)cc1)Nc1ccc(N2CCOCC2)cc1	< 0.4
CCOc1ccccc1C(=O)NC1CCNCC1	> 37.2

SMILES	solubility kinetic [µg/mL]
CCOc1ccc(NC(=S)NC(=O)c2cccnc2)c([N+](=O)[O-])c1	4.3 (≈ 12.4 µM)
CC(C)C(=O)Nc1cc(-c2nc3ncccc3o2)ccc1Cl	6 (≈ 19 µM)
CC(C(=O)O)N1c2cccc3cccc(c23)S1(=O)=O (stereo unspecified)	> 41.6
CN(CCOc1ccccc1)CCOc1ccccc1	32.8 (≈ 121 µM)
O=C1Nc2ccccc2C1=Nc1cccc(Cl)c1	28.2 (≈ 110 µM)
Cc1cccc(NC(=O)Cn2c(=O)oc3ccccc32)c1C	6.6 (≈ 22.3 µM)
O=C(CN1CCCC1)Nc1c(C(=O)C2CC2)oc2ccccc12	31.8 (≈ 102 µM)
O=C(O)C1C2C=CC(C2)C1C(=O)NCCCN1CCCC1=O (stereo unspecified)	44.2 (≈ 144 µM)
COc1ccsc1NC(=O)OCc1ccc(Cl)cc1	19.3 (≈ 64.8 µM)
O=C1CN(S(=O)(=O)c2cc(Cl)ccc2Cl)c2ccccc2N1	37.8 (≈ 106 µM)
COc1cc2[nH]c(C(=O)Nc3ccc(F)cc3)cc2c(OC)c1OC	2.4 (≈ 6.97 µM)
CCc1ccccc1NC(=O)CCOc1ccccc1	39 (≈ 145 µM)
CC(=O)NC(CC(=O)N1CCCC1)c1ccccc1 (stereo unspecified)	> 39.1
C=CCN1C(=O)CSC1=Nc1ccc(NC(C)=O)cc1	42 (≈ 145 µM)
O=S(=O)(c1cccc(-c2nnco2)c1)N1CCOCC1	> 44.3
CN1OC[C@@H]2COc3ccc4ccccc4c3[C@@H]21	33.1 (≈ 137 µM)
Cc1ccc(S(=O)(=O)NCCC(=O)NC2CC2)cc1	> 42.4
Cc1cccc(NC(=O)N2CCCCCC2)c1	> 34.8
O=C(Nc1ccc(F)cc1F)c1ccc2ncsc2c1	27.4 (≈ 94.4 µM)
COC(=O)C1=C(C)N(Cc2ccccc2)C(=O)/C1=C\c1ccco1	3.7 (≈ 11.4 µM)
C=CCC(Nc1ccccc1)c1cccc(OC)c1OC (stereo unspecified)	10.8 (≈ 38.1 µM)
Cc1nn(CC(=O)NCc2ccco2)c(C)c1[N+](=O)[O-]	> 41.7
Cn1c(=O)n(C)c2cc(NC(=O)COc3ccccc3)ccc21	> 46.7
O=C(/C=C/c1cccc(F)c1)OCC(=O)N1CCCC1	> 41.6
Cc1ccc(NC(=O)COC(=O)C2C3CC4OC(=O)C2C4C3)cc1 (stereo unspecified)	47.3 (≈ 144 µM)

SMILES	solubility kinetic [µg/mL]
CNC(=O)Nc1cccc(-c2ccnc(C)n2)c1	27.5 (≈ 114 µM)
CNc1snc(C)c1C(=O)OCC(=O)c1ccc(Cl)cc1	2.6 (≈ 8.01 µM)
COc1c(Cl)cc(Cl)cc1C(=O)Nc1ccc(CN2CCOCC2)cc1	2.6 (≈ 6.58 µM)
CCN(C(=S)NC(=O)Cc1ccc(OC)cc1)c1ccccc1	48.9 (≈ 149 µM)
CN(C)CCNC(C(=O)Nc1cc(Cl)cc(Cl)c1)c1ccccc1 (stereo unspecified)	> 54.9
CCc1noc(C)c1C(=O)OCC(=O)NCc1ccc(Cl)cc1	8.4 (≈ 24.9 µM)
CCN(CC)c1nc(N2CCN(C)CC2)nc2ccccc12.Cl	50.1
O=S(=O)(/C=C/c1cccc(Br)c1)N1CCOCC1	40 (≈ 120 µM)
COn1c(-c2ccccc2)c(C=O)c2ccccc21	2.4 (≈ 9.55 µM)
COc1ccccc1C(=O)Nc1nc2ccccc2[nH]1	4.2 (≈ 15.7 µM)
O=C(Cc1ccccc1F)Nc1cc(S(=O)(=O)N2CCOCC2)ccc1N1CCCC1	15.1 (≈ 33.7 µM)
COc1ccc(C(=O)n2c(N)nc3ccccc32)cc1OC.Cl	10.9
CCc1noc(C)c1C(=O)Nc1nc(-c2cccs2)cs1	19.3 (≈ 60.4 µM)
O=C(CNC(=O)c1ccccc1)OCC(=O)c1c[nH]c2ccccc12	18.6 (≈ 55.3 µM)
O=C(NCc1ccccc1)c1ccccc1-c1nc2ccccc2[nH]1	2.2 (≈ 6.72 µM)
O=S(=O)(c1ccc2c(c1)CCCN2)N1CCCC1	> 40
O=S(=O)(NCCc1csc(-c2ccccc2)n1)c1cccnc1	> 51.8
O=C(Cc1ccccc1[N+](=O)[O-])NCCC1=CCCCC1	26.7 (≈ 92.6 µM)
OCc1c(Cl)nc2ccccn12	> 27.4
O=C(Nc1ccccn1)c1ccc2c(c1)OCO2	> 36.3
O=C(NCc1ccc2c(c1)OCO2)c1ccccc1	38 (≈ 149 µM)
Cc1c(C)n(CCCN(C)C)c2ncnc(Nc3ccc(F)cc3)c12	48.7 (≈ 143 µM)
Cc1cn2c(N)c(/C=C3\C=Nc4ccccc43)c(=O)nc2s1	< 0.2
O=C(Nc1ccc(OCC(F)(F)C(F)F)cc1)c1ccncc1	> 49.2
CCCOCc1ccc(O)c2ncccc12	19.6 (≈ 90.2 µM)

SMILES	solubility kinetic [µg/mL]
O=C(CC1SC(N2CCOCC2)=NC1=O)Nc1ccccc1F (stereo unspecified)	> 50.6
Cc1nc(Cl)sc1C(=O)Nc1ccc(C(F)(F)F)cc1	6.6 (≈ 20.6 µM)
COc1ccc(-n2c(CNCCc3ccc(C)cc3)nc3ccccc3c2=O)cc1	45.2 (≈ 113 µM)
CN1CCN(CCOc2ccc(Cc3ccccc3)cc2)CC1.Cl	40.4
Cl.c1ccc2c3c(c(CN4CCCCC4)cc2c1)COC3	> 45.6
Cc1ccc(-c2nonc2NC(=O)c2ccco2)cc1	> 40.4
CCc1c(C)c(C#N)c2nc3ccccc3n2c1NC	1.3 (≈ 4.92 µM)
O=C(CN1CCCCCCC1)Nc1cccc(Cl)c1Cl	< 0.3
COc1ccccc1NC(=O)COC(=O)C1CC2CCCC(C1)C2=O (stereo unspecified)	> 51.8
CN(CC(=O)Nc1cccc(F)c1)CC(=O)N(C)c1c(N)n(Cc2ccccc2)c(=O)[nH]c1=O	> 70.3
Cc1cccc(NC(=O)c2ccccc2NC(=O)c2ccccc2)n1	1.8 (≈ 5.43 µM)
CC1CCN(S(=O)(=O)c2ccc3[nH]c(=O)[nH]c3c2)CC1	3.2 (≈ 10.8 µM)
Cc1nc(Cl)c(C(=O)NCc2ccccc2)c(C)c1[N+](=O)[O-]	10.8 (≈ 33.8 µM)
O=C(Cc1ccc(Br)cc1)OCC(=O)c1ccc[nH]1	10.3 (≈ 32 µM)
COc1cc2c(cc1OC)C(c1ccc(Br)cc1)NC(=O)C2 (stereo unspecified)	45.2 (≈ 125 µM)
CSc1nccc(-c2c(-c3ccc(Cl)cc3)noc2C)n1	4.6 (≈ 14.5 µM)
O=C(Nc1ccc(Cl)cc1C(=O)N1CCCCC1)c1ccco1	46.6 (≈ 140 µM)
COCCNC(=O)c1cccc2c1-c1ccccc1C2=O	> 42.2
Cc1ccc(CN2CCCC(C(=O)c3ccc4c(c3)OCO4)C2)cc1C (stereo unspecified)	25.4 (≈ 72.3 µM)
c1ccc(N2CCN(Cc3ccc4c(c3)OCO4)CC2)nc1	32.1 (≈ 108 µM)
N#C/C(=C\c1ccccc1)C(=O)NC1CC1	> 31.8
O=C(NCc1ccc(Cl)cc1)[C@@H]1CCCN1S(=O)(=O)c1ccc(Cl)cc1	31.3 (≈ 75.7 µM)
Cc1cc(C(=O)NCc2ccco2)c2cc(F)ccc2n1	42.3 (≈ 149 µM)
Nc1cccc2c1C(=O)N(Cc1cccc(Cl)c1)C2=O	< 0.3
O=S(=O)(Nc1ccc(Cl)cc1)c1ccc2c(c1)CCO2	> 46.5

SMILES	solubility kinetic [µg/mL]
CC1(C)Cc2c(C#N)c(SCCO)nc(N3CCOCC3)c2CO1	> 52.4
CC(=O)c1sc(NC(=O)Cc2c(F)cccc2Cl)nc1C	8.2 (≈ 25.1 µM)
C=CCn1c(SCC(=O)N(C)C)nc2sc3c(c2c1=O)CCC3	3.4 (≈ 9.73 µM)
Cn1cnnc1SCC(=O)Nc1ccc(F)cc1	> 39.9
CC1=C(C(=O)OC(C)C)C(c2ccc(O)cc2)NC(=O)N1 (stereo unspecified)	> 43.5
O=C(Nc1ccccc1)Nc1ccccc1Br	2.1 (≈ 7.21 µM)
COCc1cc(C)nc2oc(C(=O)c3ccccc3)c(N)c12	8.4 (≈ 28.3 µM)
O=C(CCNC(=O)c1ccccc1Cl)Nc1ccccc1N1CCCC1	48.6 (≈ 131 µM)
O=C(COc1ccc(Cl)cc1Br)NC(=O)NC1CCCC1	6.4 (≈ 17 µM)
CC(=O)Nc1ccc(NC(=O)c2nccnc2C(=O)O)cn1	> 45.2
CC(C)(C)C(=O)NC1CCSC1=O (stereo unspecified)	> 30.2
CN(Cc1ccccc1)C(=O)COC(=O)CCC(=O)c1ccc(Cl)cc1	9.6 (≈ 25.7 µM)
Cc1onc(-c2ccccc2)c1C(=O)N1CCN(c2ncccn2)CC1	> 52.4
Cc1ccc2nc(-c3ccccc3)oc(=O)c2c1	0.9 (≈ 3.79 µM)
O=C(COc1cccc2c1CCNC2=O)Nc1ccc(F)cc1	> 47.1
COc1cccc(CNC(=O)CCCc2cn(C)c3ccccc23)c1	6.1 (≈ 18.1 µM)
CC(NC(=O)COC(=O)CN1C(=O)C2CCCCC2C1=O)c1ccccc1 (stereo unspecified)	> 55.9
COc1ccccc1N1CC(C(=O)Nc2ccc(C)c(S(=O)(=O)N3CCOCC3)c2)CC1=O (stereo unspecified)	> 71
O=C(CNC(=O)c1ccco1)OCc1ccccc1Cl	> 44.1
O=[N+]([O-])c1cccc(-c2cc3ccccc3[nH]2)c1	< 0.3
CCS(=O)(=O)N1CCN(c2ncnc3sc(C)c(C)c23)CC1	> 51.1
